{"source": "paper PMC9430770", "about": "(Microbiology Spectrum, 2022)", "molecules": {"B1": {"name": "C. albicans Eno1 (enzyme, UniProt P30575 1-440, looked up)", "chain": "MSYATKIHARYVYDSRGNPTVEVDFTTDKGLFRSIVPSGASTGVHEALELRDGDKSKWLGKGVLKAVANVNDIIAPALIKAKIDVVDQAKIDEFLLSLDGTPNKSKLGANAILGVSLAAANAAAAAQGIPLYKHIANISNAKKGKFVLPVPFQNVLNGGSHAGGALAFQEFMIAPTGVSTFSEALRIGSEVYHNLKSLTKKKYGQSAGNVGDEGGVAPDIKTPKEALDLIMDAIDKAGYKGKVGIAMDVASSEFYKDGKYDLDFKNPESDPSKWLSGPQLADLYEQLISEYPIVSIEDPFAEDDWDAWVHFFERVGDKIQIVGDDLTVTNPTRIKTAIEKKAANALLLKVNQIGTLTESIQAANDSYAAGWGVMVSHRSGETEDTFIADLSVGLRSGQIKTGAPARSERLAKLNQILRIEEELGSEAIYAGKDFQKASQL", "notes": "also called CaEno1; enolase; source: E. coli BL21(DE3), purified (Ni-NTA, Superdex 200 SEC)"}}, "key": {"Candida albicans 103": {"system": "Candida albicans 103", "test": "Checkerboard microdilution assay with fluconazole", "assay_type": "cell-based", "description": "Ta b l e S3. Interaction of fluconazole ( FLC) and BE probes against isolates of Candida albicans\nCompounds Molecular structure Individual action Interaction MIC(μg/ mL ) FICI Mode of\nMIC (μg /mL) FLC Compounds interaction"}, "[1]": {"system": "C. albicans eno1/eno1 mutant strain", "test": "Galleria mellonella infection model, eno1/eno1 strain", "assay_type": "in vivo, Candida albicans", "conditions": "G. mellonella, 10 mg/kg", "method": "To assess whether Eno1 is a therapeutic target of BE, we constructed a homozygous deletion strain for the ENO1 gene (eno1/eno1). We then investigated the difference in the antifungal efficacy of BE on the infections caused by the parent strain SN152 and the eno1/eno1 strain in the Galleria mellonella infection model. We divided the G. mellonella into 5 groups, with 10 larvae in each group. All 10 larvae died after a 24-h infection with the SN152 strain, while only 3 larvae died after 24 h when infected with the eno1/eno1 strain; the remaining larvae died within 7 days. Compared with the group infected with the parent strain, the survival time of the group infected with the eno1/eno1 strain was longer (P < 0.01) (Fig. 4A). […] The survival rate of larvae in the BE (10 mg/kg of body weight)-treated, SN152 strain-infected group was extended by 30%, compared with that in the group infected with the SN152 strain but without antifungal drug treatment (P < 0.001) (Fig. 4B). […] All 10 larvae in the BE-treated group died within 6 days, and all 10 larvae without BE treatment were killed within 7 days (Fig. 4C). However, FLC (10 mg/kg) can extend the survival rate of larvae infected by the eno1/eno1 strain by 60% (P < 0.01) (Fig. 4D) compared with the group infected with the eno1/eno1 strain without antifungal drug treatment.\nFIG 4 Eno1 acts as a therapeutic target of BE. […] Each curve represents a group of 10 larvae (n =10) monitored daily for survival for up to 10 days after infection. […]\nVirulence testing of C. albicans was done in Galleria mellonella as described previously ([56]). […] After growth in YPD media overnight at 30°C and 200 rpm, C. albicans SN152 cells or eno1/eno1 mutant cells were washed with PBS 3 times and diluted to the desired concentration (1 × 10^7 cells/mL) determined by counting with a hemacytometer. […] The death of G. mellonella was assessed daily and analyzed statistically by the Kaplan-Meier method (log-rank test)."}, "CaEno1": {"biological_target": "T1, CaEno1 (Candida albicans, UniProt P30575)", "T1 sequence (P30575 1-440)": "B1 chain", "conditions": "read-out: IC50 inhibiting enolase activity; CaEno1 30 nM, 2-PG 1 mM", "experimental": "Data are shown as the means ± standard deviations. […] Data are shown as the means ± standard deviations.\nEnolase activity was determined by direct spectrophotometric assay via measuring the increase of absorbance at 240 nm of phosphoenolpyruvate (PEP) as described previously with some modifications ([54]). Briefly, the reaction buffer (pH 7.0) containing 10 mM imidazole, 200 mM KCl, and 0.5 mM MgAc in a final reaction volume of 100 μL was mixed with Eno1 (a final concentration of 30 nM), followed by the mixture of 2-phosphoglycerate (2-PG) (Yuanye Biotech Shanghai) with a final concentration of 1 mM. The enolase activity of Eno1 was evaluated by measuring the increase of absorbance (OD240) at room temperature for 10 min. […] The well-known enolase inhibitor sodium fluoride (NaF; Sangon Biotech) was initiated from 5 mM and used as a control ([29]). Inhibition curves were fitted by nonlinear regression (four parameters) using the GraphPad Prism software."}, "[2]": {"biological_target": "the molecule itself", "test": "crystal structure; X-ray crystals of CaEno1 alone and of CaEno1 with 2-PG, sitting drop at 13°C, space group C2; four Eno1 chains (two dimers) in the asymmetric unit"}}, "data": [{"molecule": "C#CCOc1cc(C2(C(F)(F)F)N=N2)ccc1COc1cc2oc(-c3ccccc3)cc(=O)c2c(O)c1N", "note": "[BE-1]", "values": [{"measurement": "Interaction MIC FLC", "setting": "Candida albicans 103; MIC of FLC in combination with the compound", "value": "> 64", "unit": "µg/mL"}, {"measurement": "Interaction MIC Compounds", "setting": "Candida albicans 103; MIC of the compound in combination with FLC", "value": 1, "unit": "µg/mL"}, {"measurement": "FICI", "setting": "Candida albicans 103; combination with FLC", "value": 1.01}, {"measurement": "Mode of interaction", "setting": "Candida albicans 103; combination with FLC, FLC-resistant C. albicans", "value": "Indifference"}, {"measurement": "Individual action MIC", "setting": "Candida albicans 103; compound alone", "value": "> 64", "unit": "µg/mL"}]}, {"molecule": "OC(Cn1cncn1)(Cn1cncn1)c1ccc(F)cc1F", "note": "[FLC, fluconazole]", "values": [{"measurement": "survival rate of larvae extended versus infected group without drug treatment", "setting": "[1]", "value": 60, "unit": "%"}]}, {"molecule": "[F-].[Na+]", "note": "[NaF, sodium fluoride]", "values": [{"measurement": "IC50", "setting": "CaEno1", "value": "504 ± 7.1", "unit": "µM"}]}, {"molecule": "B1", "values": [{"measurement": "stoichiometry N", "setting": "[2]", "value": 2}]}]}
